By inhibition is commonly meant the relative decrease from the control value, in per cent. One may read the IC50 as the concentration needed to halve the response being measured.

Molecules are shown by their SMILES.

The values below come from ChEMBL document CHEMBL5137051 (Eur J Med Chem, 2022).

The subject of assay [1] is Epidermal growth factor receptor (Homo sapiens), P00533 [L858R,T790M,C797S]. The settings on record: dose 300.0 nM.
The target in assay [2] is Epidermal growth factor receptor (Homo sapiens, UniProt P00533, L858R/T790M). The assay is described as follows: Inhibition of EGFR L858R/T790M mutant (unknown origin) by mobility shift assay.
Chain of Epidermal growth factor receptor (Homo sapiens, UniProt P00533, L858R/T790M) (P00533 25-1210 T790M/L858R limits assumed): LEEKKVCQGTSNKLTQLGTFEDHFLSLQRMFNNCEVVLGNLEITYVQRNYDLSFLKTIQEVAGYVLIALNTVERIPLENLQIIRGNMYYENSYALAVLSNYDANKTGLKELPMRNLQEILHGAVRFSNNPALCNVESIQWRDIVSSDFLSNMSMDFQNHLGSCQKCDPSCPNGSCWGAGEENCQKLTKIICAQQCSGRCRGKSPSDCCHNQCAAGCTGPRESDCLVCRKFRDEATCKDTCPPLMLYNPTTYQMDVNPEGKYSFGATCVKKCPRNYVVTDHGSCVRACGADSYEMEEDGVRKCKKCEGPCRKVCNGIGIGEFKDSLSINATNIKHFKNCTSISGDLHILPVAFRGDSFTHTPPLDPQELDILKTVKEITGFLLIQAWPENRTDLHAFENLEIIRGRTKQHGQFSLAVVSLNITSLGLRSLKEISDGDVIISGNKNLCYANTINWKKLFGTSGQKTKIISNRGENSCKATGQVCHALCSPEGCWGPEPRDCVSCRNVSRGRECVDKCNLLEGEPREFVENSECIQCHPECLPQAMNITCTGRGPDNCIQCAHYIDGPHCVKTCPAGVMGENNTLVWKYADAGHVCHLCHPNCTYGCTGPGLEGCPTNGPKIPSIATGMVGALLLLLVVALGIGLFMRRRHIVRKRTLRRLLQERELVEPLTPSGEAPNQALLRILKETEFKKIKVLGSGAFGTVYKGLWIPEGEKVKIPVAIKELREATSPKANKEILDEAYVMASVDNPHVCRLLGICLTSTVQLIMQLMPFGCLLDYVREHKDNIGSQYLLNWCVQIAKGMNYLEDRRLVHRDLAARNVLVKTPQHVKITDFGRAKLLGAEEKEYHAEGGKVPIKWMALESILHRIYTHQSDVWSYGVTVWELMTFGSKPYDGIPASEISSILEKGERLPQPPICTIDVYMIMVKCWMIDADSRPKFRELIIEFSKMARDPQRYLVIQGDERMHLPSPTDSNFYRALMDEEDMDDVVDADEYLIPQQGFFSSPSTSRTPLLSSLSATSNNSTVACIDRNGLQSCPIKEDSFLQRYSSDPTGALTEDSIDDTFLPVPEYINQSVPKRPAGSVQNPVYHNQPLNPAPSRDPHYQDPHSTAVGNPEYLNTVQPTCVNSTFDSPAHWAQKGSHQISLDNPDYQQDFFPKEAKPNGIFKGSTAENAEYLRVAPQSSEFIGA
Assay [3] concerns the target Epidermal growth factor receptor (Homo sapiens, UniProt P00533, C797S/L858R/T790M). The assay is described as follows: Inhibition of EGFR L858R/T790M/C797S mutant (unknown origin) by mobility shift assay.
In assay [4] the target is Epidermal growth factor receptor (Homo sapiens, UniProt P00533). The assay is described as follows: Inhibition of wild type EGFR (unknown origin) by mobility shift assay.
Chain of Epidermal growth factor receptor (Homo sapiens, UniProt P00533) (P00533 whole entry): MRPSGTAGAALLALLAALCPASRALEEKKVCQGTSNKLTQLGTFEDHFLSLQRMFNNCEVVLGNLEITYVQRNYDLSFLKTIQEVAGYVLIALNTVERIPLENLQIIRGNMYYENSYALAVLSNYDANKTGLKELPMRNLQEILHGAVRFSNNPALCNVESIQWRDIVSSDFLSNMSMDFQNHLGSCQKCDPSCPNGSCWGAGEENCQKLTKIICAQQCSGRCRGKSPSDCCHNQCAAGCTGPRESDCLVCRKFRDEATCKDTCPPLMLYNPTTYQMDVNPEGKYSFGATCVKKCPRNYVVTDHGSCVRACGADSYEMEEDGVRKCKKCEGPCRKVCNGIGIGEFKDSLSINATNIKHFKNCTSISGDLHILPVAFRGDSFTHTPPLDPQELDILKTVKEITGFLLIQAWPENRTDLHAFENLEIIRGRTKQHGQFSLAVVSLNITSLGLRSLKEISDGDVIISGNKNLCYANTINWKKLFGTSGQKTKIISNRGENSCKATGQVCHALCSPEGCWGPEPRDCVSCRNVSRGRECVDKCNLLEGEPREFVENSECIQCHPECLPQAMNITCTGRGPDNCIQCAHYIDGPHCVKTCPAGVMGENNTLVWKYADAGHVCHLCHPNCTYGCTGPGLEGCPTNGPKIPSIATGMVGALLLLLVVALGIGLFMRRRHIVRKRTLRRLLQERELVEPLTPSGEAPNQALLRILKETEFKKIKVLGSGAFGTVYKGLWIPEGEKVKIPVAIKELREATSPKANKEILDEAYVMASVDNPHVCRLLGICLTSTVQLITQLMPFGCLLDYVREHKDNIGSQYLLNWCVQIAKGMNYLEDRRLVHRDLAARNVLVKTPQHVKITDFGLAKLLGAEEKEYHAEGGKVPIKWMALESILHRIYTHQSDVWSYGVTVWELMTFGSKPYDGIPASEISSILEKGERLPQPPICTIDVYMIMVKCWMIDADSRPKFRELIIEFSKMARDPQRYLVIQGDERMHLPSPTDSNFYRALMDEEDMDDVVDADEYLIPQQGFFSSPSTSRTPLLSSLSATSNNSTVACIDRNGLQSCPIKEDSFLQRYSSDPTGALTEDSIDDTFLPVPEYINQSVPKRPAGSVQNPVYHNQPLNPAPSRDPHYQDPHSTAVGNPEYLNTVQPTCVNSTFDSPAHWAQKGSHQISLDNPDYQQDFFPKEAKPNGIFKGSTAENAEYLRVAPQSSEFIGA
Assay [5] addresses Hepatocyte growth factor receptor (Homo sapiens, UniProt P08581). As to the kind of experiment: Inhibition of c-Met (unknown origin) by mobility shift assay.
Another assay deals with A549. As to the kind of experiment: Antiproliferative activity against human A549 cells assessed as cell viability after 72 hrs by MTT assay. The class given is functional, cell-based. To be noted: A549, 72 h. For orientation: Formazan colour is commonly taken as a measure of viable cells.
In a further assay the test system is NCI-H1975. As to the kind of experiment: Antiproliferative activity against human H1975 cells assessed as cell viability after 72 hrs by MTT assay. To be noted: NCI-H1975, 72 h. The class given is functional, cell-based.

Chain of Epidermal growth factor receptor (Homo sapiens), P00533 [L858R,T790M,C797S] (P00533 whole entry T790M/C797S/L858R): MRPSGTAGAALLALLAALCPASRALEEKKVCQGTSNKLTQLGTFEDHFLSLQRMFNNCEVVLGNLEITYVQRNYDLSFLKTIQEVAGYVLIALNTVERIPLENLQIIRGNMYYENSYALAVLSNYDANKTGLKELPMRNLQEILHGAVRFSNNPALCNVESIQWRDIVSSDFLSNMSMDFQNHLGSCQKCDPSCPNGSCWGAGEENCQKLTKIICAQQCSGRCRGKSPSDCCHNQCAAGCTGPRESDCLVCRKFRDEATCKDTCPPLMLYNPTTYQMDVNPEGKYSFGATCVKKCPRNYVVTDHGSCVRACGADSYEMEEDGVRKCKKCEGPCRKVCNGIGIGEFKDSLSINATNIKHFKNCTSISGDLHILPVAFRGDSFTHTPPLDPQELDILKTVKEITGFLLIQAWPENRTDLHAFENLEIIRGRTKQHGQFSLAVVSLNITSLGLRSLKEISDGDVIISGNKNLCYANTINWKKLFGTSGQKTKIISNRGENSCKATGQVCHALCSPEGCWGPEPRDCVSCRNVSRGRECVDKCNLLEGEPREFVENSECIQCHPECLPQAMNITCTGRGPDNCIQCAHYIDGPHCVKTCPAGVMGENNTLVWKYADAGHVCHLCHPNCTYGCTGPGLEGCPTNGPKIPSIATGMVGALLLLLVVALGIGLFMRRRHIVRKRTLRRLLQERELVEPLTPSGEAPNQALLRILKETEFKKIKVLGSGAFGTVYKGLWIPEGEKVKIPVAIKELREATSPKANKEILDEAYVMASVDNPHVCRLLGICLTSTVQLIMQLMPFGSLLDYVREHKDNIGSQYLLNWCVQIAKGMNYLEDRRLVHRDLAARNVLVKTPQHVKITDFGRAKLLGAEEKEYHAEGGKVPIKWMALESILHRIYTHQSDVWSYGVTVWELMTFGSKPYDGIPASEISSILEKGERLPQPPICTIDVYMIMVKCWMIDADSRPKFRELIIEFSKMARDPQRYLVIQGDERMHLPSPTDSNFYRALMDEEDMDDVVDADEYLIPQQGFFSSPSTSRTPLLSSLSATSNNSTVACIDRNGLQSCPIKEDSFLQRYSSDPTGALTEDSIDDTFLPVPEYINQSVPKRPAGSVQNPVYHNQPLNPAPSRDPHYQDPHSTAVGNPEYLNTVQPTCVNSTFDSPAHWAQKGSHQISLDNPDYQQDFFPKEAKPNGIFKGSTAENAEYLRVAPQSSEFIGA
Chain of Epidermal growth factor receptor (Homo sapiens, UniProt P00533, C797S/L858R/T790M) (P00533 25-1210 T790M/C797S/L858R limits assumed): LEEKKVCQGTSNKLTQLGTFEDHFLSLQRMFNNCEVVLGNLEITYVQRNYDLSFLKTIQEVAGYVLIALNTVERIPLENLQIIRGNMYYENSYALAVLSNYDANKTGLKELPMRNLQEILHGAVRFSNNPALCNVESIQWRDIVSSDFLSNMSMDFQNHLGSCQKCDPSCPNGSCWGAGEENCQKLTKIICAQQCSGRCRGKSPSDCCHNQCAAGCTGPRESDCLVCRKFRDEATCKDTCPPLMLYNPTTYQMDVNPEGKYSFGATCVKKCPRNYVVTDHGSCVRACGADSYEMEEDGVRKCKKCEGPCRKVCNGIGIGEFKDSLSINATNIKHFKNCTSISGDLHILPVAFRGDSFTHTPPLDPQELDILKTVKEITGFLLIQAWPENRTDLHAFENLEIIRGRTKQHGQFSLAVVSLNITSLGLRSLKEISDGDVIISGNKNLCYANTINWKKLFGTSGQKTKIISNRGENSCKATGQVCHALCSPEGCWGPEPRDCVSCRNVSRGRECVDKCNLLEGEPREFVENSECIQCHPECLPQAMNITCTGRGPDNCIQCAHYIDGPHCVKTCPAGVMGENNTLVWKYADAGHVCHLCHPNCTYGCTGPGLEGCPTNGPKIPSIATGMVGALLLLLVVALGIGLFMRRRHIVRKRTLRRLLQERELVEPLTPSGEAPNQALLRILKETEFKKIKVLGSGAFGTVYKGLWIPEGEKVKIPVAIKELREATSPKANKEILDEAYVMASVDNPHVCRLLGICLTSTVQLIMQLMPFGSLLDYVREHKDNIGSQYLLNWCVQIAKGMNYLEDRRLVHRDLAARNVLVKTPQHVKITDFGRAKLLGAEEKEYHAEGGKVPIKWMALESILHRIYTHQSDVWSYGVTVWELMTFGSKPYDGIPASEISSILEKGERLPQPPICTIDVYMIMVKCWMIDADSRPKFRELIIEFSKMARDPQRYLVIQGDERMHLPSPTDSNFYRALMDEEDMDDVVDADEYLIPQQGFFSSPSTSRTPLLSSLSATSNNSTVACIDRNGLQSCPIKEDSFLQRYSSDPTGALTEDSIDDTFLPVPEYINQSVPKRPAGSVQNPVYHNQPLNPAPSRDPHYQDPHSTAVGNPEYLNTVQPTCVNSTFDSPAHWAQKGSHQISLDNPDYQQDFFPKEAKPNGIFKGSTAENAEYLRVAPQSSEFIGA

With `COc1cc(N(C)CCN(C)C)c(NC(=O)c2ccncc2)cc1Nc1nccc(-c2cn(C)c3ccccc23)n1`, the inhibition in assay [1] amounted to 24%. In addition, the IC50 in assay [2] was 391 nM; in assay [3], more than 500 nM; in assay [4], more than 500 nM; in assay [5], more than 1000 nM; in the assay with A549, 10400 nM; in the assay on NCI-H1975, 6860 nM.
`COc1cc(N(C)C)c(NC(=O)c2ccncc2OC)cc1Nc1nccc(-c2cn(C)c3ccccc23)n1`: in assay [1], the inhibition was determined as 7.9%. Further, the results for the IC50 in the assay with A549 and in the assay with NCI-H1975 were 3030 nM and 12100 nM, respectively.
For the molecule `COc1ccc(C(=O)Nc2cc(Nc3nc(-c4cn(C)c5ccccc45)c4cccnc4n3)c(OC)cc2N(C)CCN(C)C)nc1`, the inhibition in assay [1] came out at 12.8%. Further, the values for the IC50 in the assay with A549 and in the assay on NCI-H1975 were 4230 nM and 1160 nM, respectively.
On to `COc1ccc(C(=O)Nc2cc(Nc3nccc(-c4cn(C)c5ccccc45)n3)c(OC)cc2N(C)CCN(C)C)nc1`, for which the figures for the IC50 (in assay [5]; in the assay on A549; in the assay on NCI-H1975) were more than 1000 nM, 5230 nM and 4230 nM, respectively.
Regarding `COc1cc(N(C)CCN(C)C)c(NC(=O)c2cnccn2)cc1Nc1nccc(-c2cn(C)c3ccccc23)n1`, the inhibition in assay [1] was found to be 38.2%. The IC50 in assay [2] was 17 nM; in assay [3] it was more than 500 nM; in assay [4], 224 nM; in assay [5] it was more than 1000 nM; in the assay on A549, 4330 nM; in the assay with NCI-H1975 it was 1220 nM.
As for `COc1ccc(C(=O)Nc2cc(Nc3nccc(-c4cn(C)c5ccccc45)n3)c(OC)cc2N(C)C)nc1`, in assay [1], the inhibition is 1.2%. Moreover, the IC50 in the assay with A549 is 5150 nM; in the assay with NCI-H1975, 2130 nM.
On the same counts, the results for `COc1cc(F)c(NC(=O)c2cnccn2)cc1Nc1nccc(-c2cn(C)c3ccccc23)n1` are 9.7%, 2490 nM and 24800 nM.
On the same counts, the results for `COc1cc(F)c(NC(=O)c2ccncc2OC)cc1Nc1nccc(-c2cn(C)c3ccccc23)n1` are 2.2%, 3430 nM and 4120 nM.
Consider `COc1cc(N(C)CCN(C)C)c(NC(=O)c2ncccn2)cc1Nc1nccc(-c2cn(C)c3ccccc23)n1`, for which, in assay [1], the inhibition was 38.2%. The IC50 in assay [2] was 30 nM; in assay [3], more than 500 nM; in assay [4], 146 nM; in assay [5], more than 1000 nM; in the assay with A549, 2490 nM; with NCI-H1975, 650 nM.
In the case of `COc1cc(N(C)CCN(C)C)c(NC(=O)c2nccn2C)cc1Nc1nc(-c2cn(C)c3ccccc23)c2cccnc2n1`, the inhibition in assay [1] turned out to be 19.4%. The IC50 in assay [2] was 420 nM; in assay [3] it was more than 500 nM; in assay [4] it was more than 500 nM; in assay [5], more than 1000 nM; with A549 it was 5640 nM; with NCI-H1975, 4200 nM.
With `COc1cc(N(C)C)c(NC(=O)c2ccccn2)cc1Nc1nccc(-c2cn(C)c3ccccc23)n1`, the inhibition in assay [1] stood at 10.5%. Besides, the IC50 in the assay with A549 worked out at 8290 nM; in the assay with NCI-H1975 it was 10400 nM.
Take `C=CC(=O)Nc1cc(Nc2nccc(-c3cn(C)c4ccccc34)n2)c(OC)cc1N(C)CCN(C)C` [OSIMERTINIB]: the IC50 in assay [5] was more than 1000 nM; in the assay on A549 it was 1870 nM; in the assay with NCI-H1975, […].
As to `COc1cc(N(C)CCN(C)C)c(NC(=O)c2ccncc2OC)cc1Nc1nccc(-c2cn(C)c3ccccc23)n1`, the inhibition in assay [1] came out at 28.5%. The IC50 in assay [2] is 100 nM; in assay [3], more than 500 nM; in assay [4], more than 500 nM; in assay [5] it was more than 1000 nM; in the assay on A549, 2690 nM; in the assay with NCI-H1975 it was 1010 nM.
For the molecule `COc1cc(F)c(NC(=O)c2nccn2C)cc1Nc1nccc(-c2cn(C)c3ccccc23)n1`, in assay [1], the inhibition came to 7.7%. The IC50 with A549 came out at 5140 nM; in the assay with NCI-H1975, 10600 nM.
The matching figures for `COc1cc(N(C)C)c(NC(=O)c2ccncn2)cc1Nc1nccc(-c2cn(C)c3ccccc23)n1`: 8.8%, 5160 nM and 1250 nM.
On to `COc1cc(N(C)CCN(C)C)c(NC(=O)c2ccnc(O)c2)cc1Nc1nccc(-c2cn(C)c3ccccc23)n1`, for which, in assay [1], the inhibition was found to be 38.1%. Also, the IC50 in assay [2] is more than 500 nM; in assay [3] it was more than 500 nM; in assay [4], more than 500 nM; in assay [5], more than 1000 nM; with A549 it was 11200 nM; with NCI-H1975, 12000 nM.
With `COc1cc(F)c(NC(=O)c2ccnc(Cl)c2)cc1Nc1nccc(-c2cn(C)c3ccccc23)n1`, the inhibition in assay [1] stood at 9.6%. In addition, the figures for the IC50 in the assay with A549 and in the assay on NCI-H1975 were 6890 nM and 4330 nM, respectively.
Turning to `COc1cc(N(C)CCN(C)C)c(NC(=O)c2cccnc2)cc1Nc1nccc(-c2cn(C)c3ccccc23)n1`, the inhibition in assay [1] came to 41.6%. Moreover, the IC50 was 360 nM in assay [2]; more than 500 nM in assay [3]; more than 500 nM in assay [4]; more than 1000 nM in assay [5]; 1600 nM in the assay with A549; 1750 nM with NCI-H1975.
Take `COc1cc(N(C)C)c(NC(=O)c2ccnc(Cl)c2)cc1Nc1nccc(-c2cn(C)c3ccccc23)n1`: in assay [1], the inhibition came to 9.4%. In addition, the results for the IC50 in the assay on A549 and with NCI-H1975 were 3430 nM and 9200 nM, respectively.
With `COc1cc(N(C)CCN(C)C)c(NC(=O)c2nccn2C)cc1Nc1nccc(-c2cn(C)c3ccccc23)n1`, the IC50 was more than 1000 nM in assay [5], 2550 nM in the assay with A549 and 3320 nM with NCI-H1975.
`COc1cc(N(C)CCN(C)C)c(NC(=O)c2ccncc2OC)cc1Nc1nccc(-c2cn(CCCO)c3ccccc23)n1`: the inhibition in assay [1] was 49.5%. Further, the IC50 with A549 was found to be 2390 nM; with NCI-H1975 it was 1970 nM.
Regarding `COc1cc(N(C)CCN(C)C)c(NC(=O)c2cnccn2)cc1Nc1nc(-c2cn(C)c3ccccc23)c2ccccc2n1`, the inhibition in assay [1] is -9.4%. For the same molecule, the IC50 with A549 was 10100 nM; with NCI-H1975, 16300 nM.
Take `COc1cc(N(C)C)c(NC(=O)c2nccn2C)cc1Nc1nccc(-c2cn(C)c3ccccc23)n1`: in assay [1], the inhibition stood at 12.1%. Moreover, the figures for the IC50 in the assay with A549 and in the assay on NCI-H1975 were 10200 nM and 2880 nM, respectively.
Take `COc1cc(N(C)CCN(C)C)c(NC(=O)c2ccnc(Cl)c2)cc1Nc1nccc(-c2cn(C)c3ccccc23)n1`: in assay [1], the inhibition was 42.9%. The IC50 in assay [2] was more than 500 nM; in assay [3] it was 420 nM; in assay [4] it was more than 500 nM; in assay [5] it was more than 1000 nM; in the assay with A549, 970 nM; with NCI-H1975, 2050 nM.
Regarding `COc1cc(N(C)CCN(C)C)c(NC(=O)c2ccncn2)cc1Nc1nccc(-c2cn(CCCO)c3ccccc23)n1`, the inhibition in assay [1] is 65.6%. The IC50 in assay [2] is 41 nM; in assay [3], 161 nM; in assay [4], 590 nM; in assay [5] it was more than 1000 nM; in the assay on A549, 2660 nM; with NCI-H1975, 2120 nM.
Turning to `COc1cc(N(C)C)c(NC(=O)c2c[nH]cn2)cc1Nc1nccc(-c2cn(C)c3ccccc23)n1`, in assay [1], the inhibition came to 24.7%. The IC50 with A549 came to 3560 nM; in the assay on NCI-H1975, 3120 nM.
For the molecule `COc1cc(F)c(NC(=O)c2ccnc(O)c2)cc1Nc1nccc(-c2cn(C)c3ccccc23)n1`, the inhibition in assay [1] worked out at 10.6%. Besides, the IC50 is 11700 nM with A549 and 5920 nM in the assay on NCI-H1975.
On the same counts, the results for `COc1cc(N(C)C)c(NC(=O)c2ccncc2)cc1Nc1nccc(-c2cn(C)c3ccccc23)n1` are 18.1%, 9000 nM and 1470 nM.
The matching figures for `COc1ccc(C(=O)Nc2cc(Nc3nccc(-c4cn(C)c5ccccc45)n3)c(OC)cc2F)nc1`: 1.5%, 8200 nM and 16800 nM.
The matching figures for `COc1cc(N(C)C)c(NC(=O)c2ncccn2)cc1Nc1nccc(-c2cn(C)c3ccccc23)n1`: 7.4%, 8640 nM and 5400 nM.
With `COc1cc(F)c(NC(=O)c2ccncc2)cc1Nc1nccc(-c2cn(C)c3ccccc23)n1`, the inhibition in assay [1] is 15.5%. Besides, the figures for the IC50 in the assay on A549 and in the assay with NCI-H1975 were 4200 nM and 4370 nM, respectively.
For `COc1cc(N(C)CCN(C)C)c(NC(=O)c2ccnc(Cl)c2)cc1Nc1nccc(-c2cn(CCCO)c3ccccc23)n1`, the inhibition in assay [1] stood at 70.1%. For the same molecule, the IC50 in assay [2] was 42 nM; in assay [3] it was 137 nM; in assay [4], 743 nM; in assay [5], more than 1000 nM; in the assay with A549 it was 2140 nM; with NCI-H1975, 1820 nM.
Turning to `COc1cc(N(C)CCN(C)C)c(NC(=O)c2ccncn2)cc1Nc1nc(-c2cn(C)c3ccccc23)c2cccnc2n1`, the inhibition in assay [1] was determined as 22.3%. For the same molecule, the IC50 was more than 500 nM in assay [2]; more than 500 nM in assay [3]; 360 nM in assay [4]; more than 1000 nM in assay [5]; 4520 nM in the assay with A549; 1090 nM with NCI-H1975.
Turning to `COc1cc(N(C)C)c(NC(=O)c2ccnc(Cl)n2)cc1Nc1nccc(-c2cn(C)c3ccccc23)n1`, the inhibition in assay [1] is -1.8%. Moreover, the results for the IC50 in the assay on A549 and in the assay with NCI-H1975 were 2840 nM and 3660 nM, respectively.
Take `COc1cc(F)c(NC(=O)c2ncccn2)cc1Nc1nccc(-c2cn(C)c3ccccc23)n1`: the inhibition in assay [1] was determined as 9.6%. Moreover, the figures for the IC50 with A549 and in the assay on NCI-H1975 were 8400 nM and 13500 nM, respectively.
Turning to `COc1cc(F)c(NC(=O)c2ccccn2)cc1Nc1nccc(-c2cn(C)c3ccccc23)n1`, the inhibition in assay [1] was -1.4%. Further, the results for the IC50 in the assay with A549 and with NCI-H1975 were 7980 nM and 16500 nM, respectively.
